The subject of data set [1] is mushroom tyrosinase (EC 1.14.18.1). The experiment in a line: Mushroom tyrosinase inhibition assay, L-Dopa as substrate (diphenolase activity, dopachrome at 490 nm). The class given is biochemical. The conditions noted are these: for % Inhibition at 80 µM: 80 µM compound; for % Inhibition at 80 µM / % Inhibition at 30 µM: mean of three independent experiments; for % Inhibition at 30 µM: 30 µM compound. The procedure:
We conducted the assay of mushroom tyrosinase (EC 1.14.18.1) utilizing L-Dopa as the substrate, as previously described, with minor adaptations. We employed a spectrophotometric technique to assess the enzyme's diphenolase activity, observing dopachrome formation at 490 nm. […] In a 96-well microplate, 10 µl of the test samples were combined with 140 µl of 50 mM phosphate buffer (pH = 6.8). Subsequently, 20 µl of tyrosinase (273 U mL^−1) was introduced. Following a pre-incubation period of 20 min at 28 °C, 20 µl of L-Dopa solution (resulting in a final concentration of 0.7 mM) was added to the mixture. Following a 10-min incubation, the absorbance of the samples was measured. The inhibitory activity of the tested compounds was stated as IC50. The ratio percentage of inhibition was calculated according to the equation below: Inhibition%=100Abscontrol-Abscompound/Abscontrol

A further data set addresses tyrosinase. Conditions: Fig. 1; cited from earlier work.
The next data set concerns mushroom tyrosinase. The experiment in a line: Kinetic study of tyrosinase inhibition (Lineweaver-Burk plots). The class given is biochemical. From the text:
Mechanism and type of inhibition were elucidated through kinetic investigations. […] Lineweaver–Burk plots, depicting 1/V against 1/[S], were constructed to illustrate the inhibition of tyrosinase by 6b across varying concentrations of both 6b and L-Dopa, the substrate. In this context, Km represents the Michaelis–Menten constant, while Vmax signifies the maximum reaction velocity.
Based on these findings, it can be inferred that the inhibitory effect of compound 6b is competitive.
The inhibitor concentrations employed ranged from 2 to 20 μM, while the substrate (L-Dopa) concentrations in the rane of 0.1 mM to 1.5 mM through all kinetic experiments. The pre-incubation and measurement durations followed the protocol outlined in the mushroom tyrosinase inhibition assay. The maximum initial velocity was ascertained from the initial linear segment of absorbance within a 10-min window following the introduction of L-Dopa, with measurements taken at 1-min intervals. Utilizing the Lineweaver–Burk plot technique, we calculated the Michaelis constant (Km) and the tyrosinase activity's maximal velocity (Vmax). This plot involved various L-Dopa concentrations as the substrate. For assessing the enzyme's inhibition type, we employed Lineweaver–Burk plots featuring the reciprocal of velocities (1/V) plotted against the reciprocal of substrate concentrations (1/[S] mM^−1).

For the compound `COc1cc(C2C(C#N)=C(N)Oc3c2oc(CO)cc3=O)ccc1OCc1ccccc1` (centres unmarked) [6k, 2-Amino-4-(4-(benzyloxy)-3-methoxyphenyl)-6-(hydroxymethyl)-8-oxo-4,8 dihydropyrano[3,2-b]pyran-3-carbonitrile], the % Inhibition – broadly, the change of the read-out against control, counted positive when it falls – at 80 µM in data set [1] stood at 10.25 ± 3.48%.

As to `CCOC(=O)C1=C(N)Oc2c(ccc3ccccc23)C1c1cccc(Cl)c1` (centres unmarked) [1e], the IC50 (commonly the point on the concentration scale where inhibition reaches its midpoint) on tyrosinase was 34.1 µM.

As to `N#CC1=C(N)Oc2c(oc(CO)cc2=O)C1c1cccc(OCc2ccccc2)c1` (centres unmarked) [6f, 2-Amino-4-(3-(benzyloxy)phenyl)-6-(hydroxymethyl)-8-oxo-4,8-dihydropyrano[3,2-b]pyran-3-carbonitrile], the melting point (in general, the temperature of the solid-liquid transition) lay in the range of 235 to 238 °C. In data set [1], the “tyrosinase inhibitory activity (in words)” value is reported as “no inhibitory activity” and the “% Inhibition at 80 µM” value worked out at 42.27 ± 2.72%.

On to `Nn1c(SCc2cc(=O)c(O)co2)nnc1-c1ccc(Cl)cc1` [1a], for which the IC50 at tyrosinase was 4.5 µM.

The compound `N#CC1=C(N)Oc2c(oc(CO)cc2=O)C1c1cccc(OCc2ccc(Br)cc2)c1` (centres unmarked) [6i, 2-Amino-4-(3-((4-bromobenzyl)oxy)phenyl)-6-(hydroxymethyl)-8-oxo-4,8-dihydropyrano[3,2-b]pyran-3-carbonitrile] had a melting point of 236 to 238 °C. In addition, in data set [1], half-maximal inhibition (IC50) was put at 15.3 ± 3.17 µM, the “% Inhibition at 30 µM” value amounted to 59.54 ± 5.44% and the “% Inhibition at 80 µM” value worked out at 67.72 ± 7.27%.

Compound `Cc1ccc(COc2ccc(C3C(C#N)=C(N)Oc4c3oc(CO)cc4=O)cc2)cc1` (centres unmarked) [6e, 2-Amino-6-(hydroxymethyl)-4-(4-((4-methylbenzyl)oxy)phenyl)-8-oxo-4,8-dihydropyrano[3,2-b]pyran-3-carbonitrile] gave a melting point of 215 to 218 °C. For the same compound, the “% Inhibition at 80 µM” value in data set [1] turned out to be 48.63 ± 6.37%.

With `O=c1cc(CSc2nnc(-c3ccccc3)n2NCc2ccc(O)c(O)c2)occ1O` [1d], the IC50 at tyrosinase was 1.35 µM.

Regarding `CC1(C)CC(=O)C2=C(C1)Oc1ncn3ncnc3c1C2c1ccccc1` (centres unmarked) [1f], in the data set with tyrosinase, the Inhibition percentage was 78%.

Turning to `COc1cc(C2C(C#N)=C(N)Oc3c2oc(CO)cc3=O)ccc1OCc1ccc(F)cc1` (centres unmarked) [6l, 2-Amino-4-(4-((4-fluorobenzyl)oxy)-3-methoxyphenyl)-6-(hydroxymethyl)-8-oxo-4,8-dihydropyrano[3,2-b]pyran-3-carbonitrile], the “% Inhibition at 80 µM” value in data set [1] came out at 49.09 ± 4.91%.

As for `N#CC1=C(N)Oc2c(oc(CO)cc2=O)C1c1ccc(OCc2ccccc2)cc1` (centres unmarked) [6a, 2-Amino-4-(4-(benzyloxy)phenyl)-6-(hydroxymethyl)-8-oxo-4,8-dihydropyrano[3,2-b]pyran-3-carbonitrile], the melting point fell in the range of 221 to 224 °C. In data set [1], the “tyrosinase inhibitory activity (in words)” value is “inactive” and the “% Inhibition at 80 µM” value was 47.90 ± 3.90%.

As for `COc1cc(C2C(C#N)=C(N)Oc3c2oc(CO)cc3=O)ccc1OCc1ccc(Br)cc1` (centres unmarked) [6n, 2-Amino-4-(4-((4-boromobenzyl)oxy)-3-methoxyphenyl)-6-(hydroxymethyl)-8-oxo-4,8-dihydropyrano[3,2-b]pyran-3-carbonitrile], in data set [1], the “% Inhibition at 80 µM” value came to 21.36 ± 3.63%.

On to `COc1cc(C2C(C#N)=C(N)Oc3c2oc(CO)cc3=O)ccc1OCc1ccc(C)cc1` (centres unmarked) [6o, 2-Amino-6-(hydroxymethyl)-4-(3-methoxy-4-((4-methylbenzyl)oxy)phenyl)-8-oxo-4,8 dihydropyrano[3,2-b]pyran-3-carbonitrile], for which the “% Inhibition at 80 µM” value in data set [1] is given as 44.31 ± 4.18%.

`O=c1cc(/C=C/c2cc(=O)c(O)co2)occ1O` [1c]: the IC50 on tyrosinase is 30.6 µM.

For the compound `N#CC1=C(N)Oc2c(oc(CO)cc2=O)C1c1ccc(OCc2ccc(F)cc2)cc1` (centres unmarked) [6b, 2-Amino-4-(4-((4-fluorobenzyl)oxy)phenyl)-6-(hydroxymethyl)-8-oxo-4,8-dihydropyrano[3,2-b]pyran-3-carbonitrile], the melting point lay in the range of 227 to 230 °C. Also, in data set [1], the IC50 was 7.69 ± 1.99 µM, the “% Inhibition at 30 µM” value amounted to 79.81 ± 6.18% and the “% Inhibition at 80 µM” value stood at 89.27 ± 2.59%. For the same compound, the type of inhibition entry in the data set with mushroom tyrosinase (Lineweaver-Burk plot, Vmax constant, Km rising) was “competitive”. Further, the Ki (as a rule, a measure of affinity in units of concentration, obtained from inhibition or displacement) on mushroom tyrosinase (secondary plot of Km vs concentration of inhibitor, L-Dopa 0.1-1.5 mM, read-out: inhibition constant Ki) is 7.57 µM.

Regarding `COc1cc(C2C(C#N)=C(N)Oc3c2oc(CO)cc3=O)ccc1OCc1ccc(Cl)cc1` (centres unmarked) [6m, 2-Amino-4-(4-((4-cholorobenzyl)oxy)-3-methoxyphenyl)-6-(hydroxymethyl)-8-oxo-4,8-dihydropyrano[3,2-b]pyran-3-carbonitrile], in data set [1], the “% Inhibition at 80 µM” value amounted to 49.31 ± 6.12%.

`N#CC1=C(N)Oc2c(oc(CO)cc2=O)C1c1ccc(OCc2ccc(Cl)cc2)cc1` (centres unmarked) [6c, 2-Amino-4-(4-((4-chlorobenzyl)oxy)phenyl)-6-(hydroxymethyl)-8-oxo-4,8-dihydropyrano[3,2-b]pyran-3-carbonitrile] showed a melting point of 236 to 239 °C. Also, in data set [1], the IC50 is 79.2 ± 3.3 µM, the “% Inhibition at 30 µM” value was 44.09 ± 2.94% and the “% Inhibition at 80 µM” value was 50.01 ± 4.34%.

Turning to “2-Amino-4-(3-((para-tolyl)oxy)phenyl)-6-(hydroxymethyl)-8-oxo-4,8-dihydropyrano[3,2-b]pyran-3-carbonitrile [6j]”, in data set [1], the “tyrosinase inhibitory activity (in words)” value is reported as “without any activity” and the “% Inhibition at 80 µM” value was 20.45 ± 4.54%.

As to `N#CC1=C(N)Oc2c(oc(CO)cc2=O)C1c1cccc(OCc2ccc(Cl)cc2)c1` (centres unmarked) [6h, 2-Amino-4-(3-((4-chlorobenzyl)oxy)phenyl)-6-(hydroxymethyl)-8-oxo-4,8-dihydropyrano[3,2-b]pyran-3-carbonitrile], the melting point was in the range of 232 to 236 °C. In data set [1], the IC50 was determined as 10.7 ± 4.96 µM, the “% Inhibition at 30 µM” value is given as 65.90 ± 5.09% and the “% Inhibition at 80 µM” value is recorded as 67.95 ± 4.54%.

Compound `N#CC1=C(N)Oc2c(oc(CO)cc2=O)C1c1cccc(OCc2ccc(F)cc2)c1` (centres unmarked) [6g, 2-Amino-4-(3-((4-fluorobenzyl)oxy)phenyl)-6-(hydroxymethyl)-8-oxo-4,8-dihydropyrano[3,2-b]pyran-3-carbonitrile] gave a melting point of 239 to 242 °C. Moreover, in data set [1], the IC50 was found to be 9.72 ± 2.47 µM, the “% Inhibition at 30 µM” value turned out to be 77.95 ± 4.54% and the “% Inhibition at 80 µM” value is 88.63 ± 6.36%.

`N#CC1=C(N)Oc2c(oc(CO)cc2=O)C1c1ccc(OCc2ccc(Br)cc2)cc1` (centres unmarked) [6d, 2-Amino-4-(4-((4-bromobenzyl)oxy)phenyl)-6-(hydroxymethyl)-8-oxo-4,8 dihydropyrano[3,2-b]pyran-3-carbonitrile] had a melting point of 214 to 216 °C. Moreover, in data set [1], the IC50 turned out to be 34 ± 2.53 µM, the “% Inhibition at 30 µM” value is recorded as 48.86 ± 3.53% and the “% Inhibition at 80 µM” value is 66.36 ± 3.64%.

For the compound `O=c1cc(Cc2cn(Cc3cccc4ccccc34)nn2)occ1O` [1b], at tyrosinase, the IC50 was 0.06 µM.

The values above are taken from publication PMC10885651 (BMC Chemistry, 2024).
